The values below are quoted from earlier work in article PMC5019575 (European journal of inorganic chemistry, 2015).

One series addresses T1, di-Fe^III-DF3 (synthetic construct, UniProt Z9XD63LK24).
T1 sequence (Z9XD63LK24 2-49): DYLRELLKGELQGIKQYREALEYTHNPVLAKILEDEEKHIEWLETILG
Description: initial rates of oxidation, Lineweaver-Burk. The format is biochemical. The following applies: O2 (air), diferric protein, 100 mM HEPES/100 mM NaCl pH 7.0.

The subject of a further series is G4-DFtet. The following applies: O2 (air), diiron protein, 100 mM HEPES/100 mM NaCl pH 7.0.

Broadly, the Km is the concentration of substrate that gives half-maximal velocity. As to `CC(C)(C)c1cc(O)c(O)c(C(C)(C)C)c1` [3,5-DTBC, 3,5-di-tert-butylcatechol], the Michaelis-Menten constant (Km) on di-Fe^III-DF3 is 2090 ± 310 µM.
For `Nc1ccc(O)cc1` [4-AP, 4-aminophenol], the Km with G4-DFtet was 830 ± 60 µM.
Take `Nc1ccc(N)cc1` [PPD, p-phenylenediamine]: the Km at di-Fe^III-DF3 was 8870 ± 2580 µM.
